One data set concerns DU-145. In words: In vitro cytotoxicity screening (sulphodamine B dye), DU-145. The format is cell-based. Conditions: Homo sapiens; DU-145 prostate cancer cell line. On the procedure: (§1) Cells at sub confluent stage were harvested from the flask by treatment with trypsin (0.5% in PBS containing 0.02% EDTA) for determination of cytotoxicity. […] The cell suspensions of required cell density were prepared in complete growth medium with gentamycin (50 μg/ml) for determination of cytotoxicity. The cells (100 μl/well) were inoculated in 96 well tissue culture plates. The cells were allowed to grow for 24 hrs temperature of 37° C. and in a humidified atmosphere of 5% CO2 in air. Stock solution of (20 mM) of test material was prepared in DMSO. The stock solution was serially diluted with complete growth medium containing 50 μg/ml of gentamycin to obtain […] working test solutions of 1., 2, 5, 10, 50 and 100 μM.
(§2) The media were supplemented with FCS (10%), penicillin (100 Units/ml), streptomycin (100 μg/ml) and glutamine (2 mM) and cells were grown in CO2 incubator (Hera cell, Heraeus, USA) at 37° C. with 90% humidity and 5% CO2.

A further data set concerns PC-3. Briefly: In vitro cytotoxicity screening (sulphodamine B dye), PC-3. The format is cell-based. Conditions: Homo sapiens; PC-3 prostate cancer cell line. On the procedure:
as §1, §2

A further data set deals with SW-620. Briefly: In vitro cytotoxicity screening (sulphodamine B dye), SW-620. The format is cell-based. To be noted: Homo sapiens; SW-620 colon cancer cell line. On the procedure:
as §1, §2

The source of these data is patent publication US8609858B2, “Spiro derivatives of parthenin as novel anticancer agents” (Council of Scientific & Industrial Research, priority 2008, dated 2013).

Broadly, the IC50 is the concentration at which inhibition is half-maximal. A high value points to weaker potency. The term melting point denotes the temperature, or range, at which the solid turns liquid. `C[C@H]1CC[C@@H]2[C@@H](OC(=O)C23CC(c2ccc(C#N)cc2)=NO3)[C@]2(C)C(=O)C=C[C@@]12O` (some centres unmarked) [Compound -16] registered a melting point of 147 °C. In the data set on DU-145, 26 µM corresponded to half-maximal inhibition (IC50). This compound returned an IC50 in the data set with PC-3 of 32 µM. Besides, in the data set with SW-620, the IC50 was 53 µM.
Compound `C[C@H]1CC[C@@H]2[C@@H](OC(=O)C23CC(c2ccc(F)cc2)N(c2ccccc2)O3)[C@]2(C)C(=O)C=C[C@@]12O` (some centres unmarked) [Compound -24] displayed a melting point of 154 °C. For the same compound, the midpoint of inhibition in the data set on DU-145, the IC50, lay at 6.4 µM. The same compound came in with an IC50 with PC-3 of 5.7 µM. In addition, inhibition in the data set on SW-620 was half-maximal at 7.3 µM (IC50).
With `COc1ccc(C2=NOC3(C2)C(=O)O[C@@H]2[C@H]3CC[C@H](C)[C@]3(O)C=CC(=O)[C@@]23C)cc1OC` (some centres unmarked) [Compound -80], the melting point turned out to be 151 °C. This compound also gave an IC50 with DU-145 of 84 µM. In the data set with SW-620, the IC50 came to 86 µM.
As to `Cc1cc(C2CC3(ON2c2ccccc2)C(=O)O[C@@H]2[C@H]3CC[C@H](C)[C@]3(O)C=CC(=O)[C@@]23C)cc(C)c1O` (some centres unmarked) [Compound -30], the melting point stood at 108 °C.
Regarding `COc1ccc(C2=NOC3(C2)C(=O)O[C@@H]2[C@H]3CC[C@H](C)[C@]3(O)C=CC(=O)[C@@]23C)cc1` (some centres unmarked) [Compound -1], the IC50 with DU-145 was determined as 20 µM; in the data set with PC-3, 35 µM; in the data set on SW-620 it was 41 µM.
`C[C@H]1CC[C@@H]2[C@@H](OC(=O)C23CC(c2cccc([N+](=O)[O-])c2)=NO3)[C@]2(C)C(=O)C=C[C@@]12O` (some centres unmarked) [Compound -11]: the values for the IC50 in the data set with DU-145, with PC-3 and with SW-620 were 51 µM, 55 µM and 49 µM, respectively.
The matching figures for `Cc1cccc(N2CC23C(=O)O[C@@H]2[C@H]3CC[C@H](C)[C@@]3(O)C=CC(=O)[C@@]23C)c1` (some centres unmarked) [Compound -38]: 62.5 µM, 61.5 µM and 15 µM.
The matching figures for `C[C@H]1CC[C@@H]2[C@@H](OC(=O)C23CC(c2cccs2)=NO3)[C@]2(C)C(=O)C=C[C@@]12O` (some centres unmarked) [Compound -12]: 19 µM, 29 µM and 34 µM.
Compound `C[C@H]1CC[C@@H]2[C@@H](OC(=O)C23CC(c2ccc(O)cc2)=NO3)[C@]2(C)C(=O)C=C[C@@]12O` (some centres unmarked) [Compound -5] came in with a melting point of 129.2 °C. This compound also yielded an IC50 in the data set with DU-145 of 93 µM. Moreover, in the data set with SW-620, the IC50 was 89 µM.
Regarding `Cc1ccc(N2CC23C(=O)O[C@@H]2[C@H]3CC[C@H](C)[C@]3(O)C=CC(=O)[C@@]23C)cc1` (some centres unmarked), the melting point fell in the range of 241 to 242 °C.
For `Cc1ccccc1N1CC12C(=O)O[C@@H]1[C@H]2CC[C@H](C)[C@]2(O)C=CC(=O)[C@@]12C` (some centres unmarked) [Compound -43], the values for the IC50 in the data set with PC-3 and in the data set on SW-620 were 12.5 µM and 22 µM, respectively.
The compound `COc1ccc(N2CC23C(=O)O[C@@H]2[C@H]3CC[C@H](C)[C@]3(O)C=CC(=O)[C@@]23C)cc1` (some centres unmarked) had a melting point of 245 to 247 °C.
`C[C@H]1CC[C@@H]2[C@@H](OC(=O)C23CN3c2cccc([N+](=O)[O-])c2)[C@]2(C)C(=O)C=C[C@@]12O` (some centres unmarked) [Compound -40] returned a melting point of 241 to 242 °C. The compound also gave an IC50 in the data set on PC-3 of 10.1 µM. In the data set on SW-620, this compound displayed an IC50 of 61 µM.
The compound `Cc1cccc(C2=NOC3(C2)C(=O)OC2C3CC[C@H](C)[C@]3(O)C=CC(=O)[C@@]23C)c1` (some centres unmarked) [Compound -14] gave an IC50 in the data set on PC-3 of 66.6 µM.
As for `COc1ccccc1N1CC12C(=O)O[C@@H]1[C@H]2CC[C@H](C)[C@]2(O)C=CC(=O)[C@@]12C` (some centres unmarked) [Compound -37], the IC50 came to 52 µM in the data set with PC-3 and 47.3 µM in the data set on SW-620.
In the data set on PC-3, `C[C@H]1CC[C@@H]2[C@@H](OC(=O)C23CC(c2ccc(N(C)C)cc2)=NO3)[C@]2(C)C(=O)C=C[C@@]12O` (some centres unmarked) [Compound -4] displayed an IC50 of 6.33 µM.
Consider `C[C@H]1CC[C@@H]2[C@@H](OC(=O)C23CN3c2cccc(Cl)c2)[C@]2(C)C(=O)C=C[C@@]12O` (some centres unmarked) [Compound -35], for which the 50% inhibitory concentration (IC50) was found to be 39.5 µM in the data set with DU-145, 86.1 µM with PC-3 and 48.4 µM in the data set on SW-620.
